This is an account of results in ChEMBL document CHEMBL4665917, “Optimization of Versatile Oxindoles as Selective PI3Kδ Inhibitors” (ACS Med Chem Lett, 2020).

Molecules are shown by their SMILES. Converted amounts (≈) assume the structure as drawn.

Test system in the first series: not listed separately
The experiment in a line: Half life in Wistar-Han rat at 0.5 mg/kg, iv or 1 mg/kg, po. In kind it is ADME, organism-based. Conditions: in vivo.
With `CCn1c(-c2cnc(C)nc2)nc2c(-c3cnc4c(c3)[C@](C)(NC3CCC3)C(=O)N4)ncnc21`, the half-life is 3 h.
Regarding `Cc1ncc(-c2nc3c(-c4ccc5c(c4)[C@@]4(CCCN4C(=O)C4CC4)C(=O)N5)ncnc3n2C)cn1`, the half-life was 0.6 h.
Same read-out and setting: the figure for `CCn1c(-c2cnc(C)nc2)nc2c(-c3ccc4c(c3)[C@](C)(N3CC(C)(OC)C3)C(=O)N4)ncnc21` is 0.6 h; for `CCn1c(-c2cnc(C)nc2)nc2c(-c3ccc4c(c3)[C@](C)(CC3CCO3)C(=O)N4)ncnc21` (some centres undefined) it is 1 h; for `CCn1c(-c2cnc(C)nc2)nc2c(-c3ccc4c(c3)[C@](C)(NCC(C)(F)F)C(=O)N4)ncnc21` it is 1.9 h.
`CCn1c(-c2cnc(C)nc2)nc2c(-c3ccc4c(c3)[C@](C)(N[C@H]3CCOC3)C(=O)N4)ncnc21` had a half-life of 1.4 h.

Test system in a further series: not listed separately
The experiment in a line: Half life in Beagle dog at 0.5 mg/kg, iv or 1 mg/kg, po. In kind it is ADME, organism-based, Canis lupus familiaris. Conditions: in vivo.
Regarding `Cc1ncc(-c2nc3c(-c4ccc5c(c4)[C@@]4(CCCN4C(=O)C4CC4)C(=O)N5)ncnc3n2C)cn1`, the half-life is 1.3 h.
Compound `CCn1c(-c2cnc(C)nc2)nc2c(-c3ccc4c(c3)[C@](C)(N3CC(C)(OC)C3)C(=O)N4)ncnc21` gave a half-life of 1.8 h.
`CCn1c(-c2cnc(C)nc2)nc2c(-c3ccc4c(c3)[C@](C)(CC3CCO3)C(=O)N4)ncnc21` (some centres undefined) showed a half-life of 1 h.
Compound `CCn1c(-c2cnc(C)nc2)nc2c(-c3ccc4c(c3)[C@](C)(NCC(C)(F)F)C(=O)N4)ncnc21` showed a half-life of 1.1 h.
`CCn1c(-c2cnc(C)nc2)nc2c(-c3ccc4c(c3)[C@](C)(N[C@H]3CCOC3)C(=O)N4)ncnc21`: the half-life was 1.6 h.

The species named for a further series is Homo sapiens. In words: Selectivity index, ratio of IC50 for Inhibition of N-terminal His6 tagged recombinant full-length human PI3Kalpha/human recombinant full length p85alpha expressed in baculovirus infected Sf21 cells to IC50 for Inhibition of N-terminal His6 tagged recombinant full-length human PI3Kdelta/human recombinant full length p85alpha expressed in baculovirus infected Sf21 cells.
Settings: not given
Consider `CCn1ncc(-c2nc3c(N4CCC(n5c(=O)[nH]c6ncccc65)CC4)ncnc3n2C)c1C`, for which the Ratio IC50 was found to be 71.

Test system in the next series: not listed separately
The experiment in a line: Apparent permeability in pig LLC-PK1 cells. Format: ADME, cell-based, Sus scrofa.
Settings: not given
Take `CCn1c(-c2cnc(C)nc2)nc2c(-c3cnc4c(c3)[C@](C)(NC3CCC3)C(=O)N4)ncnc21`: the apparent permeability (Papp) came to 25 ×10⁻⁶ cm/s.
Same read-out and setting: as for `Cc1ncc(-c2nc3c(-c4ccc5c(c4)[C@@]4(CCCN4C(=O)C4CC4)C(=O)N5)ncnc3n2C)cn1`, the figure is 9 ×10⁻⁶ cm/s.
On to `CCn1c(-c2cnc(C)nc2)nc2c(-c3ccc4c(c3)[C@](C)(N3CC(C)(OC)C3)C(=O)N4)ncnc21`, for which the apparent permeability coefficient (Papp) turned out to be 27 ×10⁻⁶ cm/s.
As to `CCn1c(-c2cnc(C)nc2)nc2c(-c3ccc4c(c3)[C@](C)(N[C@H]3CCOC3)C(=O)N4)ncnc21`, the apparent permeability coefficient (Papp) was found to be 14 ×10⁻⁶ cm/s.

Test system in a further series: not listed separately
In words: Solubility of the compound at pH 7. Format: physicochemical. Conditions: buffer.
Consider `CCn1c(-c2cnc(C)nc2)nc2c(-c3cnc4c(c3)[C@](C)(NC3CCC3)C(=O)N4)ncnc21`, for which the solubility stood at 140 µM (≈ 63.8 µg/mL).
Same read-out and setting: the figure for `Cc1ncc(-c2nc3c(-c4ccc5c(c4)[C@@]4(CCCN4C(=O)C4CC4)C(=O)N5)ncnc3n2C)cn1` is 130 µM (≈ 62.5 µg/mL); for `CCn1c(-c2cnc(C)nc2)nc2c(-c3ccc4c(c3)[C@](C)(N3CC(C)(OC)C3)C(=O)N4)ncnc21` it is 120 µM (≈ 58.1 µg/mL); for `CCn1c(-c2cnc(C)nc2)nc2c(-c3ccc4c(c3)[C@](C)(NCC(C)(F)F)C(=O)N4)ncnc21` it is 120 µM (≈ 57.4 µg/mL).
Same read-out and setting: as for `CCn1c(-c2cnc(C)nc2)nc2c(-c3ccc4c(c3)[C@](C)(N[C@H]3CCOC3)C(=O)N4)ncnc21`, the figure is 180 µM (≈ 84.7 µg/mL).

Test system in another series: not listed separately
The experiment in a line: Clearance in Wistar-Han rat at 0.5 mg/kg, iv or 1 mg/kg, po. Format: ADME, organism-based. Conditions: in vivo.
With `Cc1ncc(-c2nc3c(-c4ccc5c(c4)[C@@]4(CCCN4C(=O)C4CC4)C(=O)N5)ncnc3n2C)cn1`, the clearance turned out to be 49 mL/min/kg.
Still for that read-out and setting: as for `CCn1c(-c2cnc(C)nc2)nc2c(-c3ccc4c(c3)[C@](C)(CC3CCO3)C(=O)N4)ncnc21` (some centres undefined), the figure is 27 mL/min/kg.
As to `CCn1c(-c2cnc(C)nc2)nc2c(-c3ccc4c(c3)[C@](C)(N[C@H]3CCOC3)C(=O)N4)ncnc21`, the clearance came out at 44 mL/min/kg.

Test system in a further series: not listed separately
The experiment in a line: Intrinsic clearance in Wistar-Han rat at 0.5 mg/kg, iv or 1 mg/kg, po. In kind it is ADME, organism-based. Conditions: in vivo.
`Cc1ncc(-c2nc3c(-c4ccc5c(c4)[C@@]4(CCCN4C(=O)C4CC4)C(=O)N5)ncnc3n2C)cn1`: the CL is 290 mL/min/kg.
On the same count and under the same terms, as for `CCn1c(-c2cnc(C)nc2)nc2c(-c3ccc4c(c3)[C@](C)(CC3CCO3)C(=O)N4)ncnc21` (some centres undefined), the figure is 99 mL/min/kg; as for `CCn1c(-c2cnc(C)nc2)nc2c(-c3ccc4c(c3)[C@](C)(N[C@H]3CCOC3)C(=O)N4)ncnc21`, 160 mL/min/kg.

Test system in the next series: not listed separately
The experiment in a line: Volume of distribution in Wistar-Han rat at 0.5 mg/kg, iv or 1 mg/kg, po. In kind it is ADME, organism-based. Conditions: in vivo.
As for `CCn1c(-c2cnc(C)nc2)nc2c(-c3cnc4c(c3)[C@](C)(NC3CCC3)C(=O)N4)ncnc21`, the Vd amounted to 2.1 L/kg.
In turn, `Cc1ncc(-c2nc3c(-c4ccc5c(c4)[C@@]4(CCCN4C(=O)C4CC4)C(=O)N5)ncnc3n2C)cn1` registered a Vd of 1.9 L/kg.
`CCn1c(-c2cnc(C)nc2)nc2c(-c3ccc4c(c3)[C@](C)(N3CC(C)(OC)C3)C(=O)N4)ncnc21` had a Vd of 1.9 L/kg.
`CCn1c(-c2cnc(C)nc2)nc2c(-c3ccc4c(c3)[C@](C)(CC3CCO3)C(=O)N4)ncnc21` (some centres undefined) yielded a Vd of 2.4 L/kg.
On the same count and under the same terms, as for `CCn1c(-c2cnc(C)nc2)nc2c(-c3ccc4c(c3)[C@](C)(NCC(C)(F)F)C(=O)N4)ncnc21`, the figure is 3.3 L/kg.
Still for that read-out and setting: as for `CCn1c(-c2cnc(C)nc2)nc2c(-c3ccc4c(c3)[C@](C)(N[C@H]3CCOC3)C(=O)N4)ncnc21`, the figure is 3.7 L/kg.

Test system in another series: not listed separately
In words: Unbound volume of distribution in Wistar-Han rat at 0.5 mg/kg, iv or 1 mg/kg, po. Format: ADME, organism-based. Conditions: in vivo.
The compound `CCn1c(-c2cnc(C)nc2)nc2c(-c3cnc4c(c3)[C@](C)(NC3CCC3)C(=O)N4)ncnc21` displayed a Vdu of 3.1 L/kg.
`Cc1ncc(-c2nc3c(-c4ccc5c(c4)[C@@]4(CCCN4C(=O)C4CC4)C(=O)N5)ncnc3n2C)cn1` showed a Vdu of 4.6 L/kg.
In turn, `CCn1c(-c2cnc(C)nc2)nc2c(-c3ccc4c(c3)[C@](C)(N3CC(C)(OC)C3)C(=O)N4)ncnc21` showed a Vdu of 6.3 L/kg.
In the case of `CCn1c(-c2cnc(C)nc2)nc2c(-c3ccc4c(c3)[C@](C)(CC3CCO3)C(=O)N4)ncnc21` (some centres undefined), the Vdu came to 6 L/kg.
`CCn1c(-c2cnc(C)nc2)nc2c(-c3ccc4c(c3)[C@](C)(NCC(C)(F)F)C(=O)N4)ncnc21`: the Vdu was found to be 6.9 L/kg.
`CCn1c(-c2cnc(C)nc2)nc2c(-c3ccc4c(c3)[C@](C)(N[C@H]3CCOC3)C(=O)N4)ncnc21` returned a Vdu of 6.5 L/kg.

Test system in the next series: not listed separately
The experiment in a line: Oral bioavailability in Wistar-Han rat at 1 mg/kg. In kind it is ADME, organism-based. Conditions: in vivo.
Turning to `CCn1c(-c2cnc(C)nc2)nc2c(-c3ccc4c(c3)[C@](C)(N3CC(C)(OC)C3)C(=O)N4)ncnc21`, the bioavailability came to 28%.
For `CCn1c(-c2cnc(C)nc2)nc2c(-c3ccc4c(c3)[C@](C)(N[C@H]3CCOC3)C(=O)N4)ncnc21`, the bioavailability was 14%.

Test system in a further series: not listed separately
The experiment in a line: Clearance in Beagle dog at 0.5 mg/kg, iv or 1 mg/kg, po. Format: ADME, organism-based, Canis lupus familiaris. Conditions: in vivo.
In turn, `Cc1ncc(-c2nc3c(-c4ccc5c(c4)[C@@]4(CCCN4C(=O)C4CC4)C(=O)N5)ncnc3n2C)cn1` had a clearance of 9.6 mL/min/kg.
The same measure, in the same setting: the figure for `CCn1c(-c2cnc(C)nc2)nc2c(-c3ccc4c(c3)[C@](C)(CC3CCO3)C(=O)N4)ncnc21` (some centres undefined) is 24 mL/min/kg; for `CCn1c(-c2cnc(C)nc2)nc2c(-c3ccc4c(c3)[C@](C)(N[C@H]3CCOC3)C(=O)N4)ncnc21` it is 32 mL/min/kg.

Test system in a further series: not listed separately
In words: Intrinsic clearance in Beagle dog at 0.5 mg/kg, iv or 1 mg/kg, po. Format: ADME, organism-based, Canis lupus familiaris. Conditions: in vivo.
`Cc1ncc(-c2nc3c(-c4ccc5c(c4)[C@@]4(CCCN4C(=O)C4CC4)C(=O)N5)ncnc3n2C)cn1` came in with a CL of 27 mL/min/kg.
`CCn1c(-c2cnc(C)nc2)nc2c(-c3ccc4c(c3)[C@](C)(CC3CCO3)C(=O)N4)ncnc21` (some centres undefined) came in with a CL of 250 mL/min/kg.

Test system in the next series: not listed separately
In words: Volume of distribution in Beagle dog at 0.5 mg/kg, iv or 1 mg/kg, po. Format: ADME, organism-based, Canis lupus familiaris. Conditions: in vivo.
With `Cc1ncc(-c2nc3c(-c4ccc5c(c4)[C@@]4(CCCN4C(=O)C4CC4)C(=O)N5)ncnc3n2C)cn1`, the Vd stood at 1.4 L/kg.
Same read-out and setting: as for `CCn1c(-c2cnc(C)nc2)nc2c(-c3ccc4c(c3)[C@](C)(N3CC(C)(OC)C3)C(=O)N4)ncnc21`, the figure is 2.8 L/kg; as for `CCn1c(-c2cnc(C)nc2)nc2c(-c3ccc4c(c3)[C@](C)(CC3CCO3)C(=O)N4)ncnc21` (some centres undefined), 1.7 L/kg.
The same measure, in the same setting: as for `CCn1c(-c2cnc(C)nc2)nc2c(-c3ccc4c(c3)[C@](C)(NCC(C)(F)F)C(=O)N4)ncnc21`, the figure is 1.7 L/kg; as for `CCn1c(-c2cnc(C)nc2)nc2c(-c3ccc4c(c3)[C@](C)(N[C@H]3CCOC3)C(=O)N4)ncnc21`, 4.2 L/kg.

Test system in a further series: not listed separately
The experiment in a line: Unbound volume of distribution in Beagle dog at 0.5 mg/kg, iv or 1 mg/kg, po. Format: ADME, organism-based, Canis lupus familiaris. Conditions: in vivo.
With `Cc1ncc(-c2nc3c(-c4ccc5c(c4)[C@@]4(CCCN4C(=O)C4CC4)C(=O)N5)ncnc3n2C)cn1`, the Vdu turned out to be 2.7 L/kg.
The compound `CCn1c(-c2cnc(C)nc2)nc2c(-c3ccc4c(c3)[C@](C)(N3CC(C)(OC)C3)C(=O)N4)ncnc21` had a Vdu of 6.5 L/kg.
`CCn1c(-c2cnc(C)nc2)nc2c(-c3ccc4c(c3)[C@](C)(CC3CCO3)C(=O)N4)ncnc21` (some centres undefined) displayed a Vdu of 3.5 L/kg.
The compound `CCn1c(-c2cnc(C)nc2)nc2c(-c3ccc4c(c3)[C@](C)(NCC(C)(F)F)C(=O)N4)ncnc21` showed a Vdu of 3.9 L/kg.
Still for that read-out and setting: as for `CCn1c(-c2cnc(C)nc2)nc2c(-c3ccc4c(c3)[C@](C)(N[C@H]3CCOC3)C(=O)N4)ncnc21`, the figure is 6.5 L/kg.

Test system in another series: not listed separately
The experiment in a line: cells. Conditions: Homo sapiens, HeLa.
With `CCn1ncc(-c2nc3c(-c4ccc5c(c4)[C@](C)(CC4CC4)C(=O)N5)ncnc3n2C)c1C`, the midpoint of inhibition, the IC50, lay at 0.017 µM.
The compound `Cn1cnc2c(-c3ccc4c(c3)[C@](C)(CC3CC3)C(=O)N4)ncnc21` gave a half-inhibitory concentration (IC50) of 3.1 µM.
The same measure, in the same setting: as for `Cc1ncc(-c2nc3c(-c4ccc5c(c4)[C@@]4(CCCN4C(=O)C4CC4)C(=O)N5)ncnc3n2C)cn1`, the figure is 10 µM.
